Source: article PMC11002875, “Linking triphenylphosphonium cation to a bicyclic hydroquinone improves their antiplatelet effect via the regulation of mitochondrial function” (Redox Biology, 2024)
Like-named read-outs stand apart in the source and are kept apart here.

Key:
Washed platelets [1] = assay: Intraplatelet (cytosolic) ROS levels (DHE); format: cell-based, Human; settings: compounds 1, 5 and 10 μM, 10 min
Experimental: (§1) Human platelet purification. The blood sample was obtained from voluntary donors (10 days without antiplatelet medication) who agreed to participate after signing informed consent (Scientific Ethics Committee of the University of Talca N° 04–2022). Briefly, blood anticoagulated with acid-citrate-dextrose (ACD) was obtained in a 4:1 v/v ratio. The sample was centrifuged for 12 min at 250 g to obtain platelet-rich plasma (PRP). Subsequently, the PRP was centrifuged for 8 min at 900 g to obtain the platelet pellet. The plasma supernatant was removed, and the platelets were resuspended in Tyrodes buffer without calcium plus ACD in a ratio of 5:1 v/v. The platelets were centrifuged once more for 8 min at 900 g and the pellet was resuspended in Tyrodes buffer without calcium. Finally, the platelets were counted (Mindray BC-3000 Plus hematology counter, Japan), adjusted to the desired concentration, and used within 3 h.
Intraplatelet ROS levels. Washed platelets (50 × 10^6 platelets/mL) were labeled with the dihydroethidium (DHE) probe 10 μM and incubated for 20 min at 37 °C protected from light. After, compounds (1, 5, and 10 μM) were added to the platelets and incubated for 10 min at 37 °C. The sample was acquired in the BD Facs Lyric flow cytometer (BD Biosciences, USA). Representative dot plots are available in Supplementary Figs. 18 and 27. As a positive control for ROS, antimycin A 20 μM was used.

Washed platelets [2] = assay: Platelet aggregation in washed platelets (aggregometer); format: cell-based, Human; settings: washed platelets
Experimental: as §1
Platelet aggregation. Washed platelets (200-250 × 10^6 platelets/mL) were preincubated with 2 mM CaCl2 and then with the compounds under study for 5 min at 37 °C in the aggregometer (Agg RAM- Helena Biosciences). Aggregation was initiated with the agonists: collagen 2 μg/mL; convulxin 20 ng/mL; TRAP-6 (Thrombin receptor activator peptide 6) 5 μM; PMA (Phorbol myristate acetate) 100 nM or arachidonic acid 250 μg/mL. The aggregation curve was evaluated for 5 min at 37 °C in shaking at 1000 rpm.

Washed platelets [3] = assay: Mitochondrial membrane potential (TMRM); format: cell-based, Human; settings: compounds 1, 5 and 10 μM, 20 min
Experimental: as §1
Mitochondrial membrane potential (ΔΨm). Washed platelets (50 × 10^6 platelets/mL) were labeled with a 100 nM tetramethylrhodamine methyl ester (TMRM) probe and incubated with compounds (1, 5 and 10 μM) for 20 min at 37 °C. The sample was acquired in the BD Facs Lyric flow cytometer (BD Biosciences, USA). Representative dot plots are available in Supplementary Figs. 12, 24, and 25. Carbonyl cyanide 4-(trifluoromethoxy) phenylhydrazone (FCCP) 1 μM was used as a control for decreasing the mitochondrial membrane potential.

Washed platelets [4] = assay: Platelet activation markers in washed platelets (flow cytometry); format: cell-based, Human; settings: collagen 2 μg/mL; compounds 1, 5 and 10 μM; vs activated control
Experimental: as §1
Platelet activation markers. Washed platelets (200-250 × 10^6 platelets/mL) were incubated with the compounds (1, 5 and 10 μM), then activated with collagen 2 μg/mL and incubated for 5 min at 37 °C. Aliquots of the reaction were then collected and labeled separately with human antibodies (BD Biosciences, San José, CA, USA) for P-selectin, CD63, activated GPIIb/IIIa (PAC-1), and fibrinogen to assess the levels of each marker on the platelet membrane. The sample was acquired using the BD Facs Lyric flow cytometer (BD Biosciences, USA). Representative dot plots are available in Supplementary Figures 8-11 and 20-23. In the case of the activation markers P-selectin and bound fibrinogen in PRP, the same procedure for washed platelets was performed with representative dot plots available in Supplementary Figs. 15 and 16. The platelet population was identified with anti-CD61-PE or anti-CD61-FITC (BD Biosciences, San José, CA, USA).

Washed platelets [5] = assay: Intraplatelet calcium levels (Fluo-4-AM); format: cell-based, Human; settings: compounds 1, 5 and 10 μM, 10 min
Experimental: as §1
Intraplatelet calcium levels. Washed platelets (200-250 × 10^6 platelets/mL) were labeled Fluo-4-AM probe with 0.5 μM and incubated for 20 min at room temperature protected from light. Subsequently, platelets were adjusted to a count of 50 × 10^6 platelets/mL, and compounds (1, 5, and 10 μM) were added and incubated for 10 min at 37 °C. The sample was acquired in the BD Facs Lyric flow cytometer (BD Biosciences, USA). Representative dot plots are available in Supplementary Figs. 13 and 26. As a control for increased intracellular calcium, P-trifluoromethoxyphenylhydrazone carbonylcyanide (FCCP) 1 μM was used.

platelets = assay: Oxygen consumption and extracellular acidification rate (Seahorse XFe24); format: cell-based, Human; settings: 10 µM
Experimental: as §1
Oxygen consumption and extracellular acidification rate. Oxygen consumption rate (OCR) and extracellular acidification rate (ECAR) were measured with a Seahorse XFe24 extracellular flux analyzer (Agilent, Santa Clara, CA, USA). Briefly, 100 μL of platelets washed in modified Tyrode-HEPES buffer were deposited (20–25 × 10^6 cells/well) and then centrifuged at 300 g for 10 min. Platelets were incubated with NP4 10 μM for 5 min, and then Tyrode's-HEPES buffer was removed and Seahorse medium (8.3 g/L DMEM, 1.85 g/L NaCl, 5 mM glucose, 1 mM pyruvate, 2 mM glutamine, 5 mM HEPES, pH 7.4) was added to a final volume of 600 μL [70]. OCR was measured before and after the sequential addition of 3 μg/mL collagen, 2.5 μM oligomycin, 1.4 μM FCCP, and 2 μM/2 μM antimycin A/rotenone. Non-mitochondrial OCR was subtracted from all measurements. Respiratory parameters obtained with Mito Stress Test (Supplementary Table 1) were calculated as follows: Baseline (baseline OCR), collagen (OCR after collagen addition), activation (collagen-basal), ATP-independent or proton leak (OCR resistant to oligomycin addition), ATP-linked respiration (basal-proton leak), maximum (OCR obtained after addition of FCCP), and spare (maximal-basal), coupling efficiency (OCR Basal – OCR ATP-indep)/OCR Basal). Respiratory parameters were calculated according to Refs. [66, 70, 73].

Washed platelets [6] = assay: Cellular cytotoxicity by release of lactate dehydrogenase (LDH); format: cell-based, Human; settings: screening at 10–100 μM
Experimental: as §1
Cellular cytotoxicity by the release of lactate dehydrogenase (LDH). Washed platelets (200-250 × 10^6 platelets/mL) were incubated with the compounds under study or vehicle for 15 min at 37 °C. Then, the platelets were centrifuged at 900 g for 8 min to collect the supernatant. […] The absorbance was analyzed at 490 nm (Microplate Reader Thermo Scientific Multiskan Go, Finland).

[7] = Homo sapiens, Platelet, PMA 100 nM, read-out: IC50 for platelet aggregation, PMA
[8] = Homo sapiens, Platelet, TRAP-6 5 μM, read-out: IC50 for platelet aggregation, TRAP-6
[9] = Homo sapiens, Platelet, arachidonic acid 250 μg/mL, read-out: IC50 for platelet aggregation, Arachidonic Acid
[10] = Homo sapiens, Platelet, collagen 2 μg/mL, read-out: IC50 for platelet aggregation, Collagen

| SMILES | Cytosolic total ROS levels (Washed platelets [1]) | IC50 (Washed platelets [2]; [7]) [µM] | IC50 (Washed platelets [2]; [8]) [µM] | IC50 (Washed platelets [2]; [9]) [µM] | IC50 (Washed platelets [2]; [10]) [µM] | Mitochondrial membrane potential (ΔΨm) (Washed platelets [3]) | Bound fibrinogen platelet activation marker (Washed platelets [4]) | CD63 platelet activation marker (Washed platelets [4]) | PAC-1 (activated GPIIb/IIIa) platelet activation marker (Washed platelets [4]) | Intraplatelet calcium levels (Washed platelets [5]) | other results |
| --- | --- | --- | --- | --- | --- | --- | --- | --- | --- | --- | --- |
| CCCCC1=CC(C)(C)c2c(O)c(C)c(C)c(O)c2C1=O [NH4, 2-Butyl-5,8-dihydroxy-4,4,6,7-tetramethylnaphthalen-1(4H)-one] | neither NP4 nor NH4 significantly affected | > 20 | > 20 | > 20 | 4.76 ± 0.7 | significantly decrease | did not have significant effects | did not have significant effects | did not have significant effects | increase it significantly |  |
| CCCC[P+](c1ccccc1)(c1ccccc1)c1ccccc1 [TPPBut, butyltriphenylphosphonium cation, reference compound] | did not show any effect |  |  |  |  | did not show any effect | did not show any effect | did not show any effect | did not show any effect | did not show any effect | IC50 (Washed platelets [2]; PMA 100 nM, read-out: IC50 for platelet aggregation, PMA): > 20 µM; IC50 (Washed platelets [2]; TRAP-6 5 μM, read-out: IC50 for platelet aggregation, TRAP-6): > 20 µM; IC50 (Washed platelets [2]; arachidonic acid 250 μg/mL, read-out: IC50 for platelet aggregation, Arachidonic Acid): > 20 µM; IC50 (Washed platelets [2]; collagen 2 μg/mL, read-out: IC50 for platelet aggregation, Collagen): 13.7 ± 2.27 µM; IC50 (Washed platelets [2]; convulxin 20 ng/mL, read-out: IC50 for platelet aggregation, Convulxin): > 20 µM; ATP-dep (OCRBasal – OCRATP-indep) (platelets): 5,68 ± 0,10; Activation (OCRCollagen – OCRBasal) (platelets): 0,59 ± 0,20; Coupling efficiency ((OCRBasal – OCRATP-indep)/OCRBasal) (platelets): 0,92 ± 0,01; Spare (OCRMaximum – OCRBasal) (platelets): 0,73 ± 0,27; Basal (OCR/10^6 platelets) (platelets; Seahorse Mito Stress Test): 6,21 ± 0,08 OCR/10^6 platelets; Maximum (OCR/10^6 platelets) (platelets; after 1.4 μM FCCP): 6,94 ± 0,19 OCR/10^6 platelets; Collagen (OCR/10^6 platelets) (platelets; after 3 μg/mL collagen): 6,80 ± 0,16 OCR/10^6 platelets; Non-mito (OCR/10^6 platelets) (platelets; after antimycin A/rotenone): 0,01 ± 0,02 OCR/10^6 platelets; ATP-indep (OCR/10^6 platelets) (platelets; proton leak, after 2.5 μM oligomycin): 0,52 ± 0,05 OCR/10^6 platelets; P-selectin platelet activation marker (Washed platelets [4]): did not show any effect |
| CCCCC1=CC(C)(C)c2c(OC)c(C)c(C)c(O)c2C1=O [NHO4, 2-Butyl-8-hydroxy-5-methoxy-4,4,6,7-tetramethylnaphthalen-1(4H)-one] |  | > 20 | > 20 | > 20 | 18.4 ± 5.26 |  |  |  |  |  |  |
| Cc1c(C)c(O)c2c(c1O)C(=O)C(CCCCBr)=CC2(C)C [NB4, 2-(4-bromobutyl)-5,8-dihydroxy-4,4,6,7-tetramethylnaphthalen-1(4H)-one] |  | > 20 | > 20 | > 20 | 15.3 ± 2.61 |  |  |  |  |  |  |
| COc1c(C)c(C)c(O)c2c1C(C)(C)C=C(CCCCBr)C2=O [NBO4, 2-(4-bromobutyl)-8-hydroxy-5-methoxy-4,4,6,7-tetramethylnaphthalen-1(4H)-one] |  | > 20 | > 20 | > 20 | 4.87 ± 1.15 |  |  |  |  |  |  |
| COc1c(C)c(C)c(O)c2c1C(C)(C)C=C(CCCC[P+](c1ccccc1)(c1ccccc1)c1ccccc1)C2=O.[Br-] [NPO4, (4-(8-hydroxy-5-methoxy-4,4,6,7-tetramethyl-1-oxo-1,4-dihydronaphthalen-2-yl)butyl)triphenyl phosphonium bromide] |  |  |  |  |  |  |  |  |  |  | Cytotoxicity by LDH release (screening) (Washed platelets [6]): *NPO4 was excluded because showed high cytotoxicity; melting point: 91.5 to 93 °C |
